{"source": "paper PMC8879702", "about": "“Discovery of Small Molecule Activators of Chemokine Receptor CXCR4 That Improve Diabetic Wound Healing” (International Journal of Molecular Sciences, 2022)", "type_in_all_cases": "cell-based", "key": {"CXCR4 receptor [1]": {"target": "T1, CXCR4 receptor (Homo sapiens, UniProt P61073)", "T1 sequence (P61073 whole entry)": "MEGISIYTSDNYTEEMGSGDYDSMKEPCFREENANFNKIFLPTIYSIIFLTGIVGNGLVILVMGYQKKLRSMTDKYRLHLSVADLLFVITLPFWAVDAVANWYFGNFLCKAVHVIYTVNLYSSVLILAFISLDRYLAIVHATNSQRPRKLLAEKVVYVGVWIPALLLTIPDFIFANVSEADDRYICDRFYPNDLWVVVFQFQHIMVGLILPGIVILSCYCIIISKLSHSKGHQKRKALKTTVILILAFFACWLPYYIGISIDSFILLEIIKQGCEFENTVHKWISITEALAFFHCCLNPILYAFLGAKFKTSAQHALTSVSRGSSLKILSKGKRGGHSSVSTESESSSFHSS", "test": "cAMP signaling assay, forskolin-induced, PathHunter CHO-K1 CXCR4 cells", "settings": "CHO-K1 CXCR4 overexpressed cells", "protocol": "The CXCR4 receptor is a G-protein coupled receptor (GPCR) coupled to the Gi class, whose primary role is inhibition of adenylate cyclase. We tested the ability of UCUF-728 to induce a Gi-mediated cAMP-inhibitory cellular response. […] (Figure 2B).\nForskolin at final concentration of 0.5 mM was added to all wells using the TECAN dispenser. […] of PathHunter CHO-K1 CXCR4 cells (DiscoverX, Fremont, CA, USA) were added to compounds at 3000 cells/well, centrifuged at 1000 rpm for 30 s and incubated for 30 min at room temperature. DMSO (Sigma Aldrich, St. Louis, MO, USA) was normalized to 0.5%. […] of 4X Eu-cAMP tracer working solution were added to all wells, followed by addition of 5 μL of 4X Ulight-anti-cAMP working solution to all wells. Plates were centrifuged at 1000 rpm for 1 min and incubated for 1 h at room temperature, then read using CLARIOstar Plus (BMG LABTECH Inc., Cary, NC, USA) Lance CAMP protocol."}, "CEM-CCRF cells": {"system": "CEM-CCRF cells", "test": "96 wells transwell migration assay in CEM human lymphoblast cells", "description": "Thus, to confirm CXCR4 functional activity, we evaluated UCUF-728 in a 96 wells transwell migration assay in CEM human lymphoblast cells. […] (Supplemental Figure S7). From the analog structure–activity relationship studies and characterization studies in the chemotaxis assay, cAMP signaling and CXCR4 binding assay, we identified UCUF-728 as a potent and functionally selective CXCR4 receptor modulator.\nCEM-CCRF (ATCC CCL-119) were suspended in RPMI 1640 (Corning; 10-040-CV) at 5.0 × 10^5 cells/mL and allowed to incubate in cell culture incubator at 37 °C with 5% CO2 for one hour. […] Following 1 h cell incubation and compound dispensing, 150 μL of RPMI 1640 supplemented with 2% Fetal Bovine Serum was added to each well of the compound receiver tray, and 50 μL of 5 × 10^5 cells/mL cell suspension in RPMI were added to each well of the top filter plate. Plates were reassembled and placed in a cell culture incubator at 37 °C with 5% CO2 for three hours. After incubation, Multi-Screen plate was disassembled and 100 μL of solution was collected from compound receiver tray and transferred to 96 well luminescent plate and an equal volume of ATPLite 1step luminescence reagent (Perkin Elmer, Waltham, MA, USA) was added to each well. Luminescence was measured using the CLARIOstar Plus (BMG LABTECH Inc., Cary, NC, USA)."}, "CXCR4 receptor [2]": {"target": "T1, CXCR4 receptor", "test": "primary 1536 w β-arrestin recruitment assay (CXCR4-bla U2OS cells, SDF-1α from R&D systems)", "parameters": "host or cells: Tango CXCR4-bla U2OS cells", "protocol": "In our effort to identify CXCR4 activators from the NIH Molecular Library Small Molecule Repository (MLSMR), we developed a primary screening assay to measure β-arrestin recruitment to the activated G-protein coupled receptor (GPCR) by a Florescence Resonance Energy Transfer (FRET) in U2OS cells, overexpressing the CXCR4 receptor engineered with a β-lactamase (bla) reporter system. CXCR4-bla cells plated in 1536 w were stimulated in the presence of 10 µM compound concentration. […] Using this approach, we successfully screened the NIH MLSMR of 370,620 compounds (Figure 1A,B) and identified 303 hits (hit rate = 0.08%). […] These compounds were graded according to activity and structure, resulting in 86 compounds that met the criteria as potential CXCR4 agonists for further characterization (Figure 1B). The workflow for high-throughput screening and this study is illustrated in Figure 1B.\nChemical stability, synthetic tractability, solubility and complete dose response and potency criteria led to the prioritization of the 5-aryl-2-cyclopropyl oxazole scaffold, represented by primary hit Compound 2 (Table 1). The early structure–activity relationship was established around the 5-aryl-2-cyclopropyl oxazole core with commercially available analogs with diverse substituents in the sulfonanilide ring of the scaffold. […] Keeping the 2-OMe substituent constant, we screened a small set of electron withdrawing and electron rich substituents at the 5-position of the anilide ring (entries 16–19). […] The analytical data for UCUF-728 is shown in Supplemental Figures S1–S4."}, "CXCR4 receptor [3]": {"target": "T1, CXCR4 receptor", "test": "384 w β-arrestin recruitment assay (Tango CXCR4-bla U2OS cells, PeproTech SDF-1α)", "parameters": "host or cells: Tango CXCR4-bla U2OS cells", "protocol": "Tango™ CXCR4-bla U2OS Cells were resuspended in assay media consisting of DMEM (Corning; Corning, NY, USA) supplemented with 1% dialyzed Fetal bovine serum, 0.1 mM MEM Non-essential amino acids solution, 25 mM HEPES solution (Corning; Corning, NY, USA), 1 mM Sodium Pyruvate and 100 IU penicillin, […] streptomycin sulfate (Corning; Corning, NY, USA) at a density of 3.0 × 10^5 cells/mL. Cells suspension was dispensed at 30 μL per well into assay plate and incubated overnight in a cell culture incubator at 37 °C with 5% CO2. Following overnight incubation, LiveBlazer FRET B/G Loading Kit working reagent was prepared according to supplier guidelines and 6 μL of solution was dispensed into each well. Assay plate was covered and incubated in a dark place for two hours and Fluorescence Intensity was measured using the BMG LABTECH CLARIOstar Plus (BMG LABTECH Inc., Cary, NC, USA) according to the LiveBlazer FRET B/G Loading Kit excitation and emission measurement guidelines."}}}
{"smiles": "COc1ccc(OC)c(NS(=O)(=O)c2ccc(-c3cnc(C4CC4)o3)cc2)c1", "note": "[Compound 19]", "values": [{"measurement": "inhibition of forskolin-induced adenylate cyclase (cAMP signaling)", "setting": "CXCR4 receptor [1]", "result": "did not inhibit forskolin-induced adenylate cyclase"}, {"measurement": "induction of cell migration", "setting": "CEM-CCRF cells; compound in lower channel, 3 h", "result": "induced migration with a similar EC50 and Emax as the B-arrestin recruitment activity"}, {"measurement": "effect on SDF-1α-mediated migration response", "setting": "CEM-CCRF cells; saturating concentrations of UCUF-728", "result": "potentiated"}, {"measurement": "EC50", "setting": "CXCR4 receptor [2]", "result": 1100, "unit": "nM"}, {"measurement": "Emax", "setting": "CXCR4 receptor [2]; U2OS", "result": 60, "unit": "%"}, {"measurement": "EC50", "setting": "CXCR4 receptor [3]", "result": 500, "unit": "nM"}, {"measurement": "Emax", "setting": "CXCR4 receptor [3]; U2OS", "result": 30, "unit": "%"}]}
